Key:
[1] = Clearance in Balb/c mouse at 0.5 mg/kg, iv measured after 2 hrs by LC-MS analysis; assay type: ADME, organism-based; conditions: in vivo
[2] = Drug concentration in Balb/c mouse at […], iv measured after 5 min by LC-MS analysis; assay type: ADME, organism-based; conditions: in vivo, dose 0.15 mg/kg, read-out: Drug uptake
[3] = AUClast in Balb/c mouse at 0.5 mg/kg, iv measured after 2 hrs by LC-MS analysis; assay type: ADME, organism-based; parameters: dose 0.5 mg/kg, time 2 hrs, route iv; conditions: in vivo
[4] = target: T1, Toll-like receptor 9 (Homo sapiens) (UniProt Q9NR96); assay: Agonist activity at human TLR9
T1 sequence (whole entry): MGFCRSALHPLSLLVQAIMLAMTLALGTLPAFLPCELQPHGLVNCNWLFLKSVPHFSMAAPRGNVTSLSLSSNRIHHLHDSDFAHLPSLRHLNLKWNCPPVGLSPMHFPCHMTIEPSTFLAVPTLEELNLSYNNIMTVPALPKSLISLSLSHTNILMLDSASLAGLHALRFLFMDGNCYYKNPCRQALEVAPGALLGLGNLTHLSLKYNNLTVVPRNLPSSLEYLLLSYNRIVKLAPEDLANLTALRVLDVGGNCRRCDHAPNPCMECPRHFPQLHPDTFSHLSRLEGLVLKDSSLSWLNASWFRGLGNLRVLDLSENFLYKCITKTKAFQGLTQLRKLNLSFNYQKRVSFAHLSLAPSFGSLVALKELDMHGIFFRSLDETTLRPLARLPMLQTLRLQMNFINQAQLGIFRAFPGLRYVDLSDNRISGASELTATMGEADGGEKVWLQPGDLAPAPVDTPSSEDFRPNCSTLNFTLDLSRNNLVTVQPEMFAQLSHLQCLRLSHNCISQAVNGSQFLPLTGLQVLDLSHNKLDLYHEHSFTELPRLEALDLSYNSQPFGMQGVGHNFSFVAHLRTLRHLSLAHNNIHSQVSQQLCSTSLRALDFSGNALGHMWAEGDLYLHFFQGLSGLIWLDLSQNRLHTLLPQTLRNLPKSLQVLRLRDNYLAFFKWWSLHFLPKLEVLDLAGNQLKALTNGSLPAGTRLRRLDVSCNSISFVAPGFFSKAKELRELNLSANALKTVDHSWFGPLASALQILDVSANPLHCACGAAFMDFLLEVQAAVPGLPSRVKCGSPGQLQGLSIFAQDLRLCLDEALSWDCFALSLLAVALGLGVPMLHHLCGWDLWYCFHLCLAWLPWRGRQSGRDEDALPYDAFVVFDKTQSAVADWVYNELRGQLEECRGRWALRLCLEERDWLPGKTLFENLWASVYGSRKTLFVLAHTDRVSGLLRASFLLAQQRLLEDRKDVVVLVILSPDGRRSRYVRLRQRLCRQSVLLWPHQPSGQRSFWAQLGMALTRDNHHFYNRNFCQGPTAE

clearance [1]: 160 mL/min/kg | concentration at 5 min [2]: 85 nM | AUC(0-t) at 2 h [3]: 0.183 µM·h | EC [4]: > 5 µM
Compound: CCC[C@@H](CCO)Nc1nc(N)nc2cnn(Cc3ccc(CNC4CCOCC4)cc3OC)c12
